Data from patent US12590062B2, “PD-1/PD-L1 inhibitors” (Gilead Sciences, Inc., priority 2017, dated 2026).
pEC50, pIC50: −log10 of the molar value.

How the values were obtained:
[1] = molecular target: T1, interaction between the recombinant extracellular domain (ECD) of PD-1 and native cell-bound PD-L1 (Homo sapiens, UniProt Q9NZQ7); experiment: CHO/PD-L1 cell capture assay; format: cell-based; conditions: CHO cells overexpressing PD-L1, pre-incubated 1 hr with compound, captured on biotinylated Fc-PD-1 coated plates, 75 min at room temperature
T1 construct: expressed in transfected cells
T1 sequence (Q9NZQ7 19-290): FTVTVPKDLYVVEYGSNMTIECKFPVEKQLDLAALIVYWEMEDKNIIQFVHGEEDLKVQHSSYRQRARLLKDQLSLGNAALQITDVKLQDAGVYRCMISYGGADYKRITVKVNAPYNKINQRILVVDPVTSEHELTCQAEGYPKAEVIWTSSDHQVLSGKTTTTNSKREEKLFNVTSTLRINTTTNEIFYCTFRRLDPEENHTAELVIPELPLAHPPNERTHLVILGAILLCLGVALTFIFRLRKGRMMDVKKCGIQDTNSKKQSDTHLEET
Procedure, shortened: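 EC50 values came from four-parameter fits of counts of Draq5-stained CHO-PD-L1 cells retained on plate-bound biotinylated Fc-PD-1 ECD, enumerated by high-content imaging. Cells in PBS pH 7.4 with EDTA and 2% BSA had 1 hr compound pre-incubation, then 75 min capture at room temperature.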

PD-L1 = molecular target: T2, PD-L1 (Homo sapiens, UniProt Q9NZQ7); experiment: PD-L1/PD-L1 dimerization biochemical protein-protein interaction assay (ALPHA); format: binding; conditions: compound-induced PD-L1 dimerization, head prints '1 nM' (0.5 nM His-tagged PD-L1 and 0.5 nM FLAG-tagged PD-L1), read-out: AC50 PDL1 Dimer Alpha 1 nM
T2 construct: determine if they can specifically dimerize the extracellular domains of PD-L1
T2 sequence (Q9NZQ7 19-238 limits assumed): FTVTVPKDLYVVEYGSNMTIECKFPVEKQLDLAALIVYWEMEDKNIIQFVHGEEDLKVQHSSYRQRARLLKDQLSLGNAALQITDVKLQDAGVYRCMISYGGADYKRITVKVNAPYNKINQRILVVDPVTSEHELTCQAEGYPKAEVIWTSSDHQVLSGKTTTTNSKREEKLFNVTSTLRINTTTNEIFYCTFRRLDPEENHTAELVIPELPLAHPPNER
T2 sequence (Q9NZQ7 19-238 limits assumed): as above
Procedure, shortened: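 After 2 h at 25 °C with compound, His- and FLAG-tagged PD-L1 ECDs (each 0.5 nM final; 25 mM Hepes pH 7.4, 150 mM NaCl) were detected by sequential anti-His acceptor and anti-FLAG donor bead incubations. Dose-response curves fitted to four-parameter equation for AC50.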

PD-1/PD-L1 = PD-1/PD-L1 (Homo sapiens, UniProt Q9NZQ7); experiment: PD-1/PD-L1 biochemical protein-protein interaction assay (ALPHA); format: binding; conditions: 0.3 nM His tagged PD-L1, 2.5 nM biotinylated Fc-PD-1, 60 minutes at 25° C., read-out: IC50 PD-L1-PD-1 Alpha IC50-mono PD-L1-fcP-D1
Chain of PD-1/PD-L1 (Q9NZQ7 19-238 limits assumed): as above
Procedure, shortened: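 Bead proximity read-out: compound-driven loss of ALPHA signal between anti-His acceptor and streptavidin donor beads (20 μg/mL acceptor). Proteins: 0.3 nM His-PD-L1, 2.5 nM biotin-Fc-PD-1, final. 60 min, 25° C, Hepes pH 7.4 buffer. IC50 via four-parameter dose-response fit.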

PD-1/PD-L1 interaction = molecular target: T3, PD-1/PD-L1 interaction (Homo sapiens, UniProt Q9NZQ7); experiment: PD-1/PD-L1 NFAT reporter co-culture assay; format: cell-based; conditions: Jurkat PD-1 NFAT-luciferase cells co-cultured with aAPC-PD-L1 CHO cells, 6 hrs at 37° C.; read-out: EC50 NFAT Luciferase
T3 construct: expressed in transfected cells; host or cells: CHO cells (aAPC-PD-L1) co-cultured with Jurkat cells overexpressing PD-1 and an NFAT-luciferase reporter
T3 sequence (Q9NZQ7 19-290): as the sequence (Q9NZQ7 19-290) above
Procedure, shortened: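 CHO aAPC-PD-L1 seeded overnight; PD-1/NFAT-luc Jurkat + cpd in RPMI 1640, 2% FBS added at once; 6 h, 37 °C; ONE-Glo luminescence; EC50, 4-parameter fit.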

| SMILES | pEC50 [1] | AC50 (PD-L1) | pIC50 (PD-1/PD-L1) | pEC50 (PD-1/PD-L1 interaction) |
| --- | --- | --- | --- | --- |
| Cc1c(COc2nc(OCc3cncc(C#N)c3)c(CNC[C@@H](O)CC(=O)O)cc2Br)cccc1-c1cccc(COc2nc(OCc3cncc(C#N)c3)c(CNC[C@@H](O)CC(=O)O)cc2Br)c1C [Example 240, (3S,3′S)-4,4′-((((((2,2′-dimethyl-[1,1′-biphenyl]-3,3′-diyl)bis(methylene))bis(oxy))bis(5-bromo-2-((5-cyanopyridin-3-yl)methoxy)pyridine-6,3-diyl))bis(methylene))bis(azanediyl))bis(3-hydroxybutanoic acid)] | 6.66 | 367 nM | 9.40 | 6.97 |
| COc1nc(O[C@H]2CCc3c(-c4cccc5c4CC[C@@H]5Oc4nc(OC)c(CNC[C@@H](O)CC(=O)O)cc4Br)cccc32)c(Br)cc1CNC[C@@H](O)CC(=O)O [Example 7, (3S,3′S)-4,4′-((((((1S,1′S)-2,2′,3,3′-tetrahydro-1H,1′H-[4,4′-biindene]-1,1′-diyl)bis(oxy))bis(5-bromo-2-methoxypyridine-6,3-diyl))bis(methylene))bis(azanediyl))bis(3-hydroxybutanoic acid)] | 7.25 | 140 nM | 10.00 | 7.05 |
| N#Cc1cncc(COc2nc(O[C@H]3CCc4c(-c5cccc6c5CC[C@@H]6Oc5nc(OCc6cncc(C#N)c6)c(CNC[C@@H](O)CC(=O)O)cc5Br)cccc43)c(Br)cc2CNC[C@@H](O)CC(=O)O)c1 [Example 4, (3S,3′S)-4,4′-((((((1S,1′S)-2,2′,3,3′-tetrahydro-1H,1′H-[4,4′-biindene]-1,1′-diyl)bis(oxy))bis(5-bromo-2-((5-cyanopyridin-3-yl)methoxy)pyridine-6,3-diyl))bis(methylene))bis(azanediyl))bis(3-hydroxybutanoic acid)] | 7.81 | 67.2 nM | 10.00 | 7.77 |
| Cc1c(COc2cc(OCc3cncc(C#N)c3)c(CNC[C@H](O)CC(=O)O)cc2Cl)cccc1-c1cccc(COc2cc(OCc3cncc(C#N)c3)c(CNC[C@H](O)CC(=O)O)cc2Cl)c1C [Example 162, (3R,3′R)-4,4′-((((((2,2′-dimethyl-[1,1′-biphenyl]-3,3′-diyl)bis(methylene))bis(oxy))bis(5-chloro-2-((5-cyanopyridin-3-yl)methoxy)-4,1-phenylene))bis(methylene))bis(azanediyl))bis(3-hydroxybutanoic acid)] | 6.58 | 236 nM | 9.70 | 6.80 |
| Cc1c(COc2nc(OCC3COC3)c(CNC[C@@H](O)CC(=O)O)cc2Br)cccc1-c1cccc(COc2nc(OCC3COC3)c(CNC[C@@H](O)CC(=O)O)cc2Br)c1C [Example 132, (3S,3′S)-4,4′-((((((2,2′-dimethyl-[1,1′-biphenyl]-3,3′-diyl)bis(methylene))bis(oxy))bis(5-bromo-2-(oxetan-3-ylmethoxy)pyridine-6,3-diyl))bis(methylene))bis(azanediyl))bis(3-hydroxybutanoic acid)] | 6.71 | 279 nM | 9.52 | 6.41 |
